Calls of active or inactive are those of the source.
How the values were obtained:
[1] = IC50 of insulin release inhibition, rat insulinoma INS-1E line, 5 mM glucose, cell-based (AID 1117331); assay type: functional
[2] = viability loss in THP-1 monocytes – THP-1 cells, cytotoxicity control for Vif-APOBEC3G degradation inhibitor project, dose response (AID 1117359); assay type: functional; conditions: THP-1
[3] = tested on: BJ; assay: BJ-TERT fibroblast viability loss – cell-based, RAS-independent, luminescence, dose response (AID 1933); assay type: functional; conditions: Homo sapiens
[4] = tested on: BJ; assay: cells; assay type: functional, cell-based; conditions: Homo sapiens
[5] = target: Luciferin 4-monooxygenase (Photinus pyralis, UniProt P08659); assay: inhibition of purified Photinus pyralis luciferase – biochemical, luminescence, dose response (AID 1891)
Sequence of Luciferin 4-monooxygenase (P08659 whole entry): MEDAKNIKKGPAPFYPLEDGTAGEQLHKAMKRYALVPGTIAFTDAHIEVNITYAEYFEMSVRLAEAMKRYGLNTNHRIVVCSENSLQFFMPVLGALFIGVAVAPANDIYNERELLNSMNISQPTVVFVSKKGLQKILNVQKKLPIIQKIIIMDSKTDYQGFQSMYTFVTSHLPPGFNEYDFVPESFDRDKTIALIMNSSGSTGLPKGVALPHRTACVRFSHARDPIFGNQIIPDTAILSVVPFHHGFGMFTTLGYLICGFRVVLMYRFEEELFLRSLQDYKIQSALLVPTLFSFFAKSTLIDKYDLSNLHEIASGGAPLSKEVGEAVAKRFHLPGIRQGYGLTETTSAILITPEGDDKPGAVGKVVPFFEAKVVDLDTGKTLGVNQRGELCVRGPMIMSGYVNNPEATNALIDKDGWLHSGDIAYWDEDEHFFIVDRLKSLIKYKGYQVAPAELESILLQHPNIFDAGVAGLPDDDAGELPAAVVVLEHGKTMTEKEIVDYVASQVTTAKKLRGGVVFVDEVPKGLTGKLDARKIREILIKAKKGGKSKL

[6] = Luminescence Cell-Based Dose Confirmation HTS to Identify Inhibitors of Platelet Dense Granule Release. [Related pubchem assays: 1663 (Primary HTS), 1678 (Summary of Project)]; assay type: functional
[7] = microbe, parasite or virus in culture; assay type: functional; conditions: Mycobacterium tuberculosis
[8] = tested on: BJ; assay: BJ-TERT-LT-ST fibroblast viability loss – cell-based, RAS-independent, luminescence, dose response (AID 1935); assay type: functional; conditions: Homo sapiens;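 also: BJ fibroblasts immortalized with TERT plus LT and ST oncogenes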
[9] = DRD fibroblast viability loss – cell-based, non-viral oncogenic, luminescence, dose response (AID 1934); assay type: functional; conditions: Homo sapiens
[10] = reduced cellular PGC1a acetyl-lysine signal – cell-based, cherry-picked samples, dose response (AID 720514); assay type: functional;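 also: potency may reflect raised or lowered acetylation signal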
[11] = target: T1, Aminopeptidase N (Plasmodium falciparum FcB1/Columbia, UniProt O96935); assay: malaria alanyl aminopeptidase activity blockers – biochemical, fluorogenic H-Leu-NHMec substrate, 1536-well (AID 1445); set-up: species or system Plasmodium falciparum 3D7, 3D7
T1 sequence (O96935 whole entry): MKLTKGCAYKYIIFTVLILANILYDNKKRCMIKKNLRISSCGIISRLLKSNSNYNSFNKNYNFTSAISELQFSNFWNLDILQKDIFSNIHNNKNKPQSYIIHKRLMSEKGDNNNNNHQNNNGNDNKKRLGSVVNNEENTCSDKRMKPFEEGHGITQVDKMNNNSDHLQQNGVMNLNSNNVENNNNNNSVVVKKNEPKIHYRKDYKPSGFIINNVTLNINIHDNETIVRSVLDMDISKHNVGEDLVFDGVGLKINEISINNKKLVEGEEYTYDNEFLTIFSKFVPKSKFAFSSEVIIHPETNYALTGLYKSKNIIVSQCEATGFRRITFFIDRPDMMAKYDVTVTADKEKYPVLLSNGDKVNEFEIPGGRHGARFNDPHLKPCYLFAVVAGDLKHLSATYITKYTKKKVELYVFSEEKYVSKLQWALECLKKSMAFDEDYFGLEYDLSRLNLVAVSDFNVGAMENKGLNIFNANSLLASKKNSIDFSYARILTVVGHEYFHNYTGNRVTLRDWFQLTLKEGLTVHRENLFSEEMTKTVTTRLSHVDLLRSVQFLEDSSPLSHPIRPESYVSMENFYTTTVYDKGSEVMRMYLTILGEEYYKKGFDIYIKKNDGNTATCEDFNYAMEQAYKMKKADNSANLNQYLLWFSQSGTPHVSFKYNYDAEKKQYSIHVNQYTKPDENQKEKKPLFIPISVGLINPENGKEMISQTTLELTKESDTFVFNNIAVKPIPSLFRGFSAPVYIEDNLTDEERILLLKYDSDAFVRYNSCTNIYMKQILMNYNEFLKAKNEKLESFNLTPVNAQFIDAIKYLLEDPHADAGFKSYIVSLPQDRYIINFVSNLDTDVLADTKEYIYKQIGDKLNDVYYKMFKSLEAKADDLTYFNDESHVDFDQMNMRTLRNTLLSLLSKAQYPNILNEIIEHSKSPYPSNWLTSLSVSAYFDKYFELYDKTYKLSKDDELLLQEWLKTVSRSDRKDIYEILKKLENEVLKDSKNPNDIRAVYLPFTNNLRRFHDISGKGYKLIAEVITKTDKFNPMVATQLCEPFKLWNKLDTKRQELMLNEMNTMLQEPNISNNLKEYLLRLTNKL

[12] = target: T2, DNA repair and recombination protein RAD54-like (Homo sapiens, UniProt Q92698); assay: RAD54 Holliday junction migration blockers – biochemical, fluorescence, cherry-picked samples, dose series, confirmation (AID 651657); assay type: functional
T2 sequence (Q92698 whole entry): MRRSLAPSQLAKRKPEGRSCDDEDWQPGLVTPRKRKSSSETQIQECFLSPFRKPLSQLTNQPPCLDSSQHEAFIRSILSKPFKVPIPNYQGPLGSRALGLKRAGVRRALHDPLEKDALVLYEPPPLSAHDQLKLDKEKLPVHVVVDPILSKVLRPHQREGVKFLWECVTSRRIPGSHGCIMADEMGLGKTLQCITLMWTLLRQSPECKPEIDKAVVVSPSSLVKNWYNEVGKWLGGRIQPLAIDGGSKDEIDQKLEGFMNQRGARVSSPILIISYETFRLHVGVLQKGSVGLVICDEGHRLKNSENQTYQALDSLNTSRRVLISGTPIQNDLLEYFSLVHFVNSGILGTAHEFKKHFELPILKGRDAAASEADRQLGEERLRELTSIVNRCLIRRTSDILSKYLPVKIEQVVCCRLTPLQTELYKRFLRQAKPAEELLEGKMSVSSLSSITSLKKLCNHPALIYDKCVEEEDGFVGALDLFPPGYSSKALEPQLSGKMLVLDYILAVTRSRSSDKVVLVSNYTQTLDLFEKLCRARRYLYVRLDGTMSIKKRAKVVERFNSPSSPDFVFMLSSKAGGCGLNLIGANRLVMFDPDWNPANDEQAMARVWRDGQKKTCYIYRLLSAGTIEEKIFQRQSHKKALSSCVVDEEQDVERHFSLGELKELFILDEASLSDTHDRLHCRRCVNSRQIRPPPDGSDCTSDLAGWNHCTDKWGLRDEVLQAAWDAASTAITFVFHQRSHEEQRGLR

[13] = cells; conditions: A549
[14] = cells; conditions: HEK293
[15] = target: Sphingosine 1-phosphate receptor 2 (Homo sapiens, UniProt O95136); assay: Dose Response Cell Based Assay for Agonists of the S1P2 Receptor. [Related pubchem assays: 729, 736, 843 ]; assay type: functional
Sequence of Sphingosine 1-phosphate receptor 2 (O95136 whole entry): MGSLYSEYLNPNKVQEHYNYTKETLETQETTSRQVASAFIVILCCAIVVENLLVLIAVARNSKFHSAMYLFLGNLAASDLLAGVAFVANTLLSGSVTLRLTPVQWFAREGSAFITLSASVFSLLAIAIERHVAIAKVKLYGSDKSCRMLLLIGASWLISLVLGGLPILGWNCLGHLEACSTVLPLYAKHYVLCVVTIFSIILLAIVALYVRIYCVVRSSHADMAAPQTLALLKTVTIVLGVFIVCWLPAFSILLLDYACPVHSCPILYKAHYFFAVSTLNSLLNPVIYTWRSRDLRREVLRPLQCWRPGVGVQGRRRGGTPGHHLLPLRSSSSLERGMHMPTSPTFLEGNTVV

[16] = target: G-protein coupled receptor 183 (Homo sapiens, UniProt P32249); assay: SAR confirmation of small molecule antagonists of the EBI2 receptor via a luminescent beta-arrestin assa.; assay type: functional
Sequence of G-protein coupled receptor 183 (P32249 whole entry): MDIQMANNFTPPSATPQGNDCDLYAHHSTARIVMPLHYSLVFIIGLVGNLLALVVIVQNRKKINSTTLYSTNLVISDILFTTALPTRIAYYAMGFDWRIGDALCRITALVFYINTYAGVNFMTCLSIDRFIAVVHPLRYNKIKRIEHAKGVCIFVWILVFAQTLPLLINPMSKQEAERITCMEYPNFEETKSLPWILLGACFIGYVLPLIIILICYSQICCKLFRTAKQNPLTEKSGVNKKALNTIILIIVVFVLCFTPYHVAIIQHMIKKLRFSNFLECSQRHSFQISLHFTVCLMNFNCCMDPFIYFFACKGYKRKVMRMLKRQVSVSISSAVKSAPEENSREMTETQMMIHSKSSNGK

[17] = P. falciparum Dd2 growth inhibitors, dose response, SYBR Green, cherry-picked samples (AID 1159567); assay type: functional, cell-based
[18] = toxicity to human hepatoma HepG2 cells – cell-based, cherry-picked samples, cytotoxicity control, dose response (AID 1159577); assay type: functional
[19] = glucagon-like peptide-1 release potency in STC-1, concentration-response, half-maximal inhibitory concentration in the STC-1 line (AID 1117345); assay type: functional, cell-based
[20] = Potency on glucagon-like peptide 1 release, dose-response in NCI-H716 cell line, half maximal inhibitory concentration (AID 1117344); assay type: functional, cell-based
[21] = inhibitors of TRPM1-promoter reporter in SK-MEL-5 – cell-based, luciferase, dry powder, set 9, MITF inhibitor project, dose response (AID 651588); assay type: functional
[22] = cytotoxicity in MITF-independent A375 cells – cell-based, CellTiter-Glo luminescence, dry powder, set 4, counter-screen for MITF inhibitor project, dose response (AID 624364); assay type: functional; conditions: A-375;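 also: A375 melanoma cells are MITF independent so this is a counter screen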
[23] = viability loss in MITF-independent A375 cells – cell-based, CellTiter-Glo luminescence, dry powder, set 7, counter-screen for MITF inhibitor project, dose response (AID 624490); assay type: functional; conditions: A-375
[24] = MITF Orthogonal Assay: MALME3 CTG Assay Measured in Cell-Based System Using Plate Reader - 2084-04_Inhibitor_Dose_DryPowder_Activity_Set6.; assay type: functional; conditions: MALME-3
[25] = growth inhibition of SK-MEL-5 melanoma cells – cell-based, CellTiter-Glo luminescence, dry powder, set 8, orthogonal assay for MITF inhibitor project, dose response (AID 651586); assay type: functional
[26] = growth inhibition of MALME3 cells – cell-based, CellTiter-Glo luminescence, dry powder, set 5, orthogonal assay for MITF inhibitor project, dose response (AID 651584); assay type: functional; conditions: MALME-3
[27] = cytotoxicity in melanoma parental cells – cell-based, CellTiter-Glo, dry powder, set 6, MITF inhibitor project, dose response (AID 624429); assay type: functional; conditions: SK-MEL-5
[28] = MITF Orthogonal Assay: SK-MEL-5 CTG Assay Measured in Cell-Based System Using Plate Reader - 2084-02_Inhibitor_Dose_DryPowder_Activity_Set5.; assay type: functional
[29] = cytotoxicity in MITF-independent A375 cells – cell-based, CellTiter-Glo luminescence, dry powder, set 9, counter-screen for MITF modulator project, dose response (AID 651591); assay type: functional; conditions: A-375
[30] = MITF Measured in Cell-Based System Using Plate Reader - 2084-01_Inhibitor_Dose_DryPowder_Activity_Set6.; assay type: functional
[31] = MITF Measured in Cell-Based System Using Plate Reader - 2084-01_Inhibitor_Dose_DryPowder_Activity_Set7.; assay type: functional

CN(C)CCOC(C)(c1ccccc1)c1ccccn1 (stereo not drawn) [DOXYLAMINE SUCCINATE]
IC50 [1]: > 33.3 µM (inactive)

NS(=O)(=O)c1cccc(NS(=O)(=O)c2ccc(/C=C/C(=O)OCC(=O)c3ccccc3)cc2)c1
CC50 [2]: > 40 µM (active)

COc1ccccc1N1CCN(c2ccc(-c3ccccc3)nn2)CC1
EC50 [3]: 2.33 µM (active)
EC50 [4]: 17 µM (active)
EC50 [5]: 3.72 µM (active)
EC50 [6]: 5.08 µM (active)
CC50 [7]: 13.7 µM (active)
EC50 [8]: 1.93 µM (active)
EC50 [9]: 1.7 µM (active)
AC50 [10]: 25.9 µM (active)

Cc1cccc(S(=O)(=O)N2C[C@@H]3N[C@H](C2)[C@@H]3c2ccc(-c3ccccc3C)cc2)c1
AC50 [10]: 12.8 µM (active)

CCn1c(=N)c(C(=O)NCCCOC)cc2c(=O)n3cccc(C)c3nc21
IC50 [11]: 50.3 µM (active)
AC50 [12]: 33.6 µM (active)
AC50 [13]: > 52 µM (inactive)
AC50 [14]: > 52 µM (inactive)

Cc1cc(C)n2cc(CSc3nnnn3-c3ccc(Cl)cc3)nc2n1
EC50 [15]: > 50 µM (not active)

O=C(/C=C/c1ccc(Br)cc1)N1CCN(Cc2ccc(Cl)cc2F)CC1
IC50 [16]: 0.00811 µM (active)

COc1cccc(CN(C)C[C@H]2OCc3ccccc3-c3c(n(C)c4ccccc34)C(=O)N([C@H](C)CO)C[C@H]2C)c1
AC50 [17]: 6.01 µM (active)
AC50 [18]: > 39 µM (inactive)

O=C(/C=C/c1ccc(Cl)cc1F)N1CCN(S(=O)(=O)c2ccccc2)CC1
IC50 [16]: 0.184 µM (active)

Cc1c(C)c2c(c(C)c1OC(=O)CCC(=O)OCCO)CC[C@@](C)(CCC[C@H](C)CCC[C@H](C)CCCC(C)C)O2
IC50 [19]: > 40 µM (inactive)
IC50 [20]: > 40 µM (inactive)

NC1=C(NS(=O)(=O)c2cccs2)C(=O)c2ccccc2C1=O
AC50 [21]: 21.3 µM (active)
AC50 [22]: > 70 µM (inactive)
AC50 [23]: 53 µM (active)
AC50 [24]: 32.5 µM (active)
AC50 [25]: 22.1 µM (active)
AC50 [26]: 32.5 µM (active)
AC50 [27]: 16.7 µM (active)
AC50 [28]: 16.9 µM (active)
AC50 [29]: > 70 µM (inactive)
AC50 [30]: 5.31 µM (active)
AC50 [31]: 5.42 µM (active)
